Reference: PubChem BioAssay (NCI)
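A five-concentration, 48-hour dose response in 96-well plates underlies each endpoint, interpolated linearly between surrounding concentrations. The concentration for full growth arrest is given as TGI.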

Columns and labels:
Assay in all cases: growth of human tumour cells (NCI), 48 h
HL-60(TB) leukemia = tested on: HL-60(TB) leukemia
MOLT-4 leukemia = tested on: MOLT-4 leukemia
HCC-2998 colon = tested on: HCC-2998 colon
MALME-3M melanoma = tested on: MALME-3M melanoma
IGROV1 ovarian = tested on: IGROV1 ovarian
SN12C renal = tested on: SN12C renal
786-0 renal = tested on: 786-0 renal
SW-620 colon = tested on: SW-620 colon
HT29 colon = tested on: HT29 colon
EKVX NSCLC = tested on: EKVX NSCLC
RPMI-8226 leukemia = tested on: RPMI-8226 leukemia
UACC-257 melanoma = tested on: UACC-257 melanoma
KM12 colon = tested on: KM12 colon
MDA-N = tested on: MDA-N
SR leukemia = tested on: SR leukemia
MDA-MB-231 breast = tested on: MDA-MB-231 breast
SNB-75 CNS = tested on: SNB-75 CNS
SK-MEL-28 melanoma = tested on: SK-MEL-28 melanoma
A549 NSCLC = tested on: A549 NSCLC
SK-MEL-5 melanoma = tested on: SK-MEL-5 melanoma
TK-10 renal = tested on: TK-10 renal
T-47D breast = tested on: T-47D breast
HCT-15 colon = tested on: HCT-15 colon
CCRF-CEM leukemia = tested on: CCRF-CEM leukemia
NCI-H23 lung = tested on: NCI-H23 lung
HOP-62 NSCLC = tested on: HOP-62 NSCLC
DU-145 prostate = tested on: DU-145 prostate
PC-3 prostate = tested on: PC-3 prostate
SK-OV-3 ovarian = tested on: SK-OV-3 ovarian
UACC-62 melanoma = tested on: UACC-62 melanoma
OVCAR-8 ovarian = tested on: OVCAR-8 ovarian
K-562 leukemia = tested on: K-562 leukemia
COLO 205 colon = tested on: COLO 205 colon
CAKI-1 renal = tested on: CAKI-1 renal
SF-295 CNS = tested on: SF-295 CNS
MCF7 breast = tested on: MCF7 breast
RXF 393 renal = tested on: RXF 393 renal
M14 melanoma = tested on: M14 melanoma
HS 578T breast = tested on: HS 578T breast
SK-MEL-2 melanoma = tested on: SK-MEL-2 melanoma
HOP-92 NSCLC = tested on: HOP-92 NSCLC
MDA-MB-435 = tested on: MDA-MB-435
NCI-H522 lung = tested on: NCI-H522 lung
SF-539 CNS = tested on: SF-539 CNS
NCI-H226 lung = tested on: NCI-H226 lung
HCT-116 colon = tested on: HCT-116 colon
NCI/ADR-RES ovarian = tested on: NCI/ADR-RES ovarian
U251 CNS = tested on: U251 CNS
A498 renal = tested on: A498 renal
OVCAR-3 ovarian = tested on: OVCAR-3 ovarian
OVCAR-4 ovarian = tested on: OVCAR-4 ovarian
SF-268 CNS = tested on: SF-268 CNS
SNB-19 CNS = tested on: SNB-19 CNS
UO-31 renal = tested on: UO-31 renal
OVCAR-5 ovarian = tested on: OVCAR-5 ovarian
LOX IMVI melanoma = tested on: LOX IMVI melanoma
ACHN renal = tested on: ACHN renal
NCI-H460 lung = tested on: NCI-H460 lung

With `Cc1ccc(S(=O)(=O)OC2C(O)C(O)OC2C(c2cc(O)c3c(c2O)C(=O)c2ccccc2C3=O)c2cc(O)c3c(c2O)C(=O)c2ccccc2C3=O)cc1` (centres undefined) the TGI (HL-60(TB) leukemia) was 4.52 µM, the TGI (MOLT-4 leukemia) was greater than 10 µM and the TGI (HCC-2998 colon) was greater than 10 µM. For the same compound, the TGI (MALME-3M melanoma) was 6.98 µM, the TGI (IGROV1 ovarian) was greater than 10 µM and the TGI (SN12C renal) was greater than 10 µM. For the same compound, the TGI (786-0 renal) was greater than 10 µM, the TGI (SW-620 colon) was greater than 10 µM and the TGI (HT29 colon) was greater than 10 µM. For the same compound, the TGI (EKVX NSCLC) was greater than 10 µM, the TGI (RPMI-8226 leukemia) was 8.67 µM and the TGI (UACC-257 melanoma) was greater than 10 µM. It also gave a TGI (KM12 colon) greater than 10 µM, a TGI (MDA-N) greater than 10 µM and a TGI (SR leukemia) greater than 10 µM. For the same compound, the TGI (MDA-MB-231 breast) was greater than 10 µM, the TGI (SNB-75 CNS) was greater than 10 µM and the TGI (SK-MEL-28 melanoma) was greater than 10 µM. For the same compound, the TGI (A549 NSCLC) was greater than 10 µM, the TGI (SK-MEL-5 melanoma) was greater than 10 µM and the TGI (TK-10 renal) was greater than 10 µM. For the same compound, the TGI (T-47D breast) was greater than 10 µM, the TGI (HCT-15 colon) was greater than 10 µM and the TGI (CCRF-CEM leukemia) was greater than 10 µM. The TGI (NCI-H23 lung) was 8.93 µM, the TGI (HOP-62 NSCLC) was greater than 10 µM and the TGI (DU-145 prostate) was greater than 10 µM. It also gave a TGI (PC-3 prostate) of 9.43 µM, a TGI (SK-OV-3 ovarian) greater than 10 µM and a TGI (UACC-62 melanoma) greater than 10 µM. It also gave a TGI (OVCAR-8 ovarian) greater than 10 µM, a TGI (K-562 leukemia) greater than 10 µM and a TGI (COLO 205 colon) of 4.85 µM. For the same compound, the TGI (CAKI-1 renal) was 8.9 µM, the TGI (SF-295 CNS) was 9.33 µM and the TGI (MCF7 breast) was greater than 10 µM. For the same compound, the TGI (RXF 393 renal) was greater than 10 µM and the TGI (M14 melanoma) was 8.71 µM.
With `COc1ccc(-n2c(N)c(C#N)[nH]c2=O)cc1` the TGI (HS 578T breast) was greater than 10 µM, the TGI (HL-60(TB) leukemia) was greater than 10 µM and the TGI (MOLT-4 leukemia) was greater than 10 µM. For the same compound, the TGI (SK-MEL-2 melanoma) was greater than 10 µM, the TGI (HOP-92 NSCLC) was greater than 10 µM and the TGI (MDA-MB-435) was greater than 10 µM. The TGI (HCC-2998 colon) was greater than 10 µM, the TGI (NCI-H522 lung) was greater than 10 µM and the TGI (MALME-3M melanoma) was greater than 10 µM. It also gave a TGI (SF-539 CNS) greater than 10 µM, a TGI (IGROV1 ovarian) greater than 10 µM and a TGI (NCI-H226 lung) greater than 10 µM. For the same compound, the TGI (HCT-116 colon) was greater than 10 µM, the TGI (SN12C renal) was greater than 10 µM and the TGI (786-0 renal) was greater than 10 µM. It also gave a TGI (SW-620 colon) greater than 10 µM, a TGI (NCI/ADR-RES ovarian) greater than 10 µM and a TGI (HT29 colon) greater than 10 µM. For the same compound, the TGI (U251 CNS) was greater than 10 µM, the TGI (EKVX NSCLC) was greater than 10 µM and the TGI (A498 renal) was greater than 10 µM. For the same compound, the TGI (OVCAR-3 ovarian) was greater than 10 µM, the TGI (RPMI-8226 leukemia) was greater than 10 µM and the TGI (UACC-257 melanoma) was greater than 10 µM. For the same compound, the TGI (OVCAR-4 ovarian) was greater than 10 µM, the TGI (KM12 colon) was greater than 10 µM and the TGI (SF-268 CNS) was greater than 10 µM. For the same compound, the TGI (MDA-N) was greater than 10 µM, the TGI (SNB-19 CNS) was greater than 10 µM and the TGI (SR leukemia) was greater than 10 µM. The TGI (MDA-MB-231 breast) was greater than 10 µM, the TGI (SNB-75 CNS) was greater than 10 µM and the TGI (SK-MEL-28 melanoma) was greater than 10 µM. For the same compound, the TGI (UO-31 renal) was greater than 10 µM, the TGI (A549 NSCLC) was greater than 10 µM and the TGI (SK-MEL-5 melanoma) was greater than 10 µM. For the same compound, the TGI (OVCAR-5 ovarian) was greater than 10 µM, the TGI (LOX IMVI melanoma) was 3.98 µM and the TGI (TK-10 renal) was greater than 10 µM. It also gave a TGI (T-47D breast) greater than 10 µM, a TGI (HCT-15 colon) greater than 10 µM and a TGI (CCRF-CEM leukemia) greater than 10 µM. For the same compound, the TGI (NCI-H23 lung) was greater than 10 µM, the TGI (HOP-62 NSCLC) was greater than 10 µM and the TGI (DU-145 prostate) was greater than 10 µM. It also gave a TGI (PC-3 prostate) greater than 10 µM, a TGI (SK-OV-3 ovarian) greater than 10 µM and a TGI (UACC-62 melanoma) greater than 10 µM. For the same compound, the TGI (ACHN renal) was greater than 10 µM, the TGI (OVCAR-8 ovarian) was greater than 10 µM and the TGI (K-562 leukemia) was greater than 10 µM. The TGI (NCI-H460 lung) was greater than 10 µM, the TGI (COLO 205 colon) was greater than 10 µM and the TGI (SF-295 CNS) was 7.91 µM. It also gave a TGI (RXF 393 renal) greater than 10 µM and a TGI (M14 melanoma) greater than 10 µM.
